Patent US9700522B2, “Transdermal patch and method for delivery of vitamin B12” (Vita Sciences LLC, priority 2007, dated 2017)

Key:
[1] = test system: skin; assay: skin irritation on wear of patch with nicotinate enhancer; assay type: in vivo; settings: benzylnicotinate substituted for methylnicotinate in the patch enhancer system
Description: (§1) Permeation enhancers identified as useful for this product included nicotinates (methyl and benzyl), fatty acids (oleic acid, undecanioic acid, lauric acid), fatty alcohols (octanol and nonanol), terpenes (menthol, limonene, and menthone), and polyols (polyethylene glycol, propylene glycol, and glycerol). In an early trial, a binary enhancer system of methylnicotinate and propylene glycol was used but the inventor observed that the methylnicotinate crystallized after about 3-4 months in the patch.

[2] = early trial of patch with binary enhancer system: crystallization of enhancer in the patch on storage; assay type: physicochemical; settings: binary enhancer system of methylnicotinate and propylene glycol in vitamin B12 patch
Description: as §1

[3] = test system: skin; assay: permeation enhancement of vitamin B12 from the patch; settings: in conjunction with propylene glycol
Description: as §1

## O=C(OCc1ccccc1)c1cccnc1 [benzylnicotinate]
[1]
  skin irritation: severe and unacceptable skin irritation

## COC(=O)c1cccnc1 [methylnicotinate]
[2]
  time after which the enhancer crystallized in the patch: 3-4 months

## CC(C)[C@@H]1CC[C@@H](C)CC1=O [menthone]
[3]
  permeation enhancer performance: excellent permeation enhancer
